# Source: patent US12599608B2, “Methods for treating cardiac valve disease” (The Regents of the University of California, priority 2018, dated 2026)
# Where a name gives a salt, the structure may show the parent alone.
# What was measured:
# Format in all cases: cell-based, human
# [1] = tested on: N1^+/− iPSC-derived ECs; assay: Network-based small molecule screen by targeted RNA-seq of 119 genes (KNN and hierarchical clustering); settings: for KNN classification of network gene expression of treated N1^+/− ECs: initial screen of 1595 small molecules, treatment day 15 to day 21 of differentiation, KNN k=2; for hierarchical clustering of transcriptional profile of treated N1-haploinsufficient ECs with WT ECs: initial screen, complete agglomeration method
# Text: TALEN-engineered isogenic human iPSCs that were either WT (wild-type) or N1^+/− were derived and characterized as detailed in Theodoris et al., Cell. 2015; 160:1072-1086. Isogenic iPSCs (induced pluripotent stem cells) were differentiated into ECs as previously described (Theodoris et al., 2015; White et al., Stem Cells. 2012; 31:92-103). On day 13 of the differentiation process, ECs were greater than 90% double-positive for CD31 (BD #558068) and CD144 (#FAB9381P) by FACS (fluorescence-activated cell sorting) analysis (FIGS. 9G-H). Small molecule experiments (described below) were conducted at day 15 of differentiation.
# (§1) Starting on day 15 of differentiation, WT ECs were exposed to 10 μM DMSO (dimethyl sulfoxide) (n=80) while isogenic N1^+/− ECs were exposed to either 10 μM DMSO (n=80) or one of the small molecules from the LOPAC (1280 molecules) (Sigma LO1280) or Sheng Ding (315 molecules) chemical libraries. DMSO or small molecules were renewed with EC media (ScienCell #1001) changes on alternating days until the cells were ultimately collected for analysis on day 21. ECs were imaged using the IN Cell Analyzer on day 21 to evaluate morphology and cell death; wells with extensive cell death were eliminated from final analyses. For validation experiments, promising small molecules identified from the initial screen were applied to N1^+/− ECs in duplicate or triplicate along with controls of DMSO-exposed WT and N1^+/− ECs (n=4 each) using the same process as the initial screen described above.
# (§2) ECs were lysed and RNA was isolated using the Qiagen RNeasy 96-well purification kit. RNA was diluted so that it was between the 10 pg-1 ng range accepted by the Cellular Research Precise targeted RNA-seq (RNA sequencing) system. Targeted RNA-seq libraries were prepared as per the Cellular Research Precise protocol (Rev 03092015), which includes both molecule and sample barcoding. The selected 119 target genes (see Table 1) included 3 low-expressing housekeeping genes for normalization (CHMP2A, C1orf43, REEP5) and either predicted central regulatory nodes or peripheral genes positioned within varied regions of the N1 network to permit identification of small molecules that affected central nodes as well as those that may have a synergistic effect in combination due to regulating different aspects of the network. Briefly, RNA was added to the Precise Encoding Plate containing indexed dT primer, dNTPs, and Spike-in mRNA controls and incubated at 65° C. for 3 minutes followed by cooling on ice. A master-mix of RT enzyme, RNase inhibitor, and buffer was then added to the samples, and they were incubated at 42° C. for 30 minutes followed by 80° C. for 5 minutes. Each plate of samples was combined into a single 2 ml tube and purified with AMPureXP beads. N1 PCR master-mix was added and samples were incubated for 94° C. for 2 minutes, followed by 15 cycles of 94° C. for 30 seconds, 55° C. for 3 minutes, and 68° C. for 1 minute, followed by 68° C. for 7 minutes. Samples were purified with AMPureXP beads and N2 PCR master-mix was added. Samples were incubated with the same thermal cycler program as above for 12 cycles. These final libraries were then purified with AMPureXP beads and analyzed for quality and concentration by Agilent Bioanalyzer and Illumina Library Quantification Kit (KAPA Biosystems), respectively. Libraries were normalized to equivalent concentration and pooled for paired-end 100 bp sequencing on an Illumina HiSeq 2500 instrument.
# Sequencing data was analyzed using Cellular Research Precise Analysis Pipeline on the SevenBridges platform, which included analyzing sequencing quality with FASTQC, trimming adapters and filtering reads, demultiplexing based on sample barcodes, aligning reads with Bowtie 2, and determining the number of unique molecular indices per gene. Network inference was based on mutual information of gene expression from all DMSO- and small molecule-exposed samples as described in Margolin et al., BMC Bioinformatics. […]
# [2] = tested on: N1^+/− ECs; assay: Validation trials of screen candidates by targeted RNA-seq with the trained KNN algorithm; settings: duplicate or triplicate; one or more replicates classified as WT
# Method: as §1, §2
# Sequencing data was analyzed using Cellular Research Precise Analysis Pipeline on the SevenBridges platform, which included analyzing sequencing quality with FASTQC, trimming adapters and filtering reads, demultiplexing based on sample barcodes, aligning reads with Bowtie 2, and determining the number of unique molecular indices per gene. Network inference was based on mutual information of gene expression from all DMSO- and small molecule-exposed samples as described in Margolin et al., BMC Bioinformatics. 2006; 7 Suppl 1:S7. Network diagram was generated using NetworkX (Hagberg et al., Exploring Network Structure, Dynamics, and Function using NetworkX. SciPy. 2008) based on network connections inferred from the small molecule screen data as described above with colors based on whole transcriptome RNA-seq gene expression of isogenic N1^+/− compared to WT ECs.
# Promising small molecules were identified using either K-nearest neighbor (KNN) or hierarchical clustering algorithms. […]
# [3] = tested on: N1^+/− ECs; assay: Whole transcriptome RNA-seq of N1^+/− ECs treated with network-correcting molecules
# Method: ECs were lysed and RNA was isolated using the Qiagen RNeasy Micro purification kit. RNA-seq libraries were constructed using the Clontech SMRTer Stranded RNA-seq Library Prep Kit for Illumina per kit protocol. Libraries were analyzed by Agilent Bioanalyzer, normalized to equivalent concentration, pooled, gel purified, and sequenced 75 bp paired-end on an Illumina NextSeq instrument with 10% PhiX.
# Sequencing quality was assessed with FASTQC (located on the web by placing “www.” in front of “bioinformatics.babraham.ac.uk/projects/fastqc/”). Reads were aligned to the hg19 (Homo sapiens assembly February 2009) transcriptome and genome using the Spliced Transcripts Alignment to a Reference (STAR) Aligner (Dobin et al., Bioinformatics. 2012; 29:15-21) and differential expression was analyzed using Cuffdiff (Trapnell et al., Nat Biotechnol. 2012; 31:46-53). HOPACH was used for clustering with the correlation metric (van der Laan and Pollard; located on the web by placing “www.” in front of “bioconductor.org/packages/devel/bioc/manuals/hopach/man/hopach.pdf”. GO analyses were completed using GO-Elite and ToppGene (Chen et al., Nucleic Acids Research. 2009; 37:W305-W311; Zambon et al., Bioinformatics. 2012; 28:2209-2210). Network diagrams were generated using NetworkX (Hagberg et al., SciPy. 2008) based on network connections inferred from mRNA-seq gene expression of isogenic N1^+/− compared to WT ECs with colors based on whole transcriptome RNA-seq gene expression of DMSO- vs small molecule-treated WT and N1^+/− ECs.
SMILES,KNN classification of network gene expression of treated N1^+/− ECs [1],KNN classification of treated N1^+/− ECs in validation trials [2],hierarchical clustering of transcriptional profile of treated N1-haploinsufficient ECs with WT ECs [1],other results
C=CCN1CC[C@]23c4c5ccc(O)c4O[C@H]2/C(=N/NC(=O)c2ccccc2)CC[C@@]3(O)[C@H]1C5 [Naloxone benzoylhydrazone],classified as WT,,,
"CC(C)(C)NCC(O)c1ccccc1Cl (centres unmarked) [Tulobuterol_hydrochloride, tulobuterol hydrochloride]",classified as WT,,,
"NC(=O)c1cc(N2CC2)c([N+](=O)[O-])cc1[N+](=O)[O-] [CB_1954, 5-(1-aziridinyl)-2,4-dinitrobenzamide]",classified as WT,classified as WT,,
CCCCC[C@H](O)/C=C/[C@H]1[C@H](O)CC(=O)[C@@H]1CCCCCCC(=O)O [Alprostadil],classified as WT,,,
"OC1(c2ccc(Cl)cc2)CCN(Cc2c[nH]c3ccccc23)CC1 [L-741,626]",classified as WT,,,
CN1C(C(=O)Nc2ccccn2)=C(O)c2ccccc2S1(=O)=O [piroxicam],,,cluster with WT ECs,
CC(/C=C/c1cccc(Oc2ccc(F)cc2)c1)N(O)C(N)=O (centres unmarked) [BWB70C],,,cluster with WT ECs,
"NCCCCN [Putrescine dihydrochloride, Butane-1,4-diamine]",,classified as WT,,
"CC(C)C[C@H](NC(=O)OCC1c2ccccc2-c2ccccc21)C(=O)O [Fmoc-leu, Fmoc-Leucine]",classified as WT,classified as WT,,
Cc1ccnc(NS(=O)(=O)c2ccc(NC(=O)Nc3ccc(S(=O)(=O)Nc4nccc(C)n4)cc3)cc2)n1 [GSK837149A],classified as WT,classified as WT,,"restoration of transcription of genes repressed in N1-haploinsufficient ECs ([3]; FIG. 2A): restored transcription of a complementary group of genes involved in angiogenesis and cardiovascular development; restoration of the N1-dependent network as a whole ([3]; FIGS. 2E, 3A): restored more complementary genes to XCT790"
Cc1ccc(N(CC2=NCCN2)c2cccc(O)c2)cc1 [phentolamine mesylate],,,cluster with WT ECs,
C=CCc1ccccc1OCC(O)CNC(C)C (centres unmarked) [alprenolol],,,cluster with WT ECs,
CCn1cc(C(=O)O)c(=O)c2cc(F)c(N3CCNCC3)cc21 [Norfloxacin],classified as WT,,,
OCc1ccc(-c2nn(Cc3ccccc3)c3ccccc23)o1 [YC-1],classified as WT,,,
C=C1[C@@H](O)C2/C=C/C[C@H](C)CCCC(=O)/C=C/C(=O)O[C@]23CN[C@@H](Cc2ccccc2)[C@@H]3[C@@H]1C (some centres unmarked) [Cytochalasin],classified as WT,classified as WT,,effect on dysregulation of cell motility genes ([3]; FIG. 2A): worsened the dysregulation; repression of genes aberrantly activated in N1-haploinsufficient ECs ([3]; FIG. 2A): effective at downregulating arterial thrombosis and T cell signal genes; repressive effect on cadherin-11 mRNA expression ([3]; FIG. 9A): strongest repressive effect
C[N+](C)(C)CCOC(N)=O [carbachol],,,cluster with WT ECs,
O[C@@](CCN1CCCCC1)(c1ccccc1)[C@@H]1CC2C=CC1C2 (mixture of isomers) [Biperiden_hydrochloride],,classified as WT,,
CC(C)(C(=O)NCC(F)(F)C(F)(F)F)C(=O)N[C@@H]1C(=O)Nc2ccccc2-c2ccccc21 [RO-4929097],classified as WT,classified as WT,,
CCCCc1oc2ccccc2c1C(=O)c1cc(I)c(OCCN(CC)CC)c(I)c1 [amiodarone],,,cluster with WT ECs,
